# Test system: hPSCs
# Assay: RT-qPCR of pluripotency and germ-layer markers during differentiation with CPP-peptides (Supplementary Fig. 7b-e)
# Format: cell-based, human
# Settings: ectodermal differentiation
# Description: For CPP-conjugated peptide delivery, HeLa, 293T, and PA-1 cells were incubated with CPP-conjugated peptides or CPP-FITC at 2 μM in DMEM with 10% FBS for 12 h a day before cell harvest. hPSCs were treated with CPP-conjugated peptides at 10 μM in mTeSR Plus Medium, and the peptide-containing medium was changed every day over 10 days. The ROCK inhibitor (Tocris Bioscience, Y-27632) treated-hPSCs were dissociated into single cells using Accutase (Merck, SCR005) and differentiated into ectoderm, mesoderm, and endoderm using the STEMdiff Trilineage Differentiation Kit ([…] Technologies, 05230) following the manufacturer’s protocol. Differentiated cells treated with CPP-conjugated peptides were analysed at 0, 3, and 5 days for ectoderm and endoderm, and at 0, 3, and 4 days for mesoderm. […]
# cDNA was synthesised using RevertAid Reverse Transcriptase (Thermo Fisher Scientific, EP0441) with synthesised random hexamer (Macrogen) for total RNA or stem-loop primers for miRNA. For RT-qPCR reactions, the SensiFAST SYBR No-ROX kit (Meridian Bioscience) was used according to the manufacturer’s protocol. All data analysis and visualisation were conducted using R 3.6.1 [www.r-project.org] or GraphPad Prism 10. RT primers for miRNA and RT-qPCR primer sequences are provided in Supplementary Data 6. […]
# FPKM of each gene was presented f r om RNA-seq analysis. b–e hPSCs wer e treated with the indicated peptide during each germ la ye r differentiation. […]
# An unpaired Student’s t-test was used for a–e. Data are presented as mean values ± SEM. All statistical test us ed wer e two-s ided. T he m inim um number of independent biological replicate experim ents was a–f n = 3. T he experiments wer e conducted three tim es, each iteration producing consistent results.
sequence,measurement,value
"KKKWCRKKKSSADEKRYRALKRTAERELLMNA [CPP-P8, CPP conjugated to P8]",transcripts downregulated in ectodermal differentiation,"downregulated the expression of genes closely associated with CNS development (DCX, NEUROD1, NOS2, and PAX3)"
same,transcripts upregulated in ectodermal differentiation,"upregulated the essential transcription factors for retinal gliogenesis and NOTCH signalling (LHX2, NOTCH1, and DLK1)"
